The results in this text go back to patent US11046649B2, “Compounds useful as inhibitors of indoleamine 2,3-dioxygenase and/or tryptophan dioxygenase” (Board of Regents, The University of Texas System, priority 2018, dated 2021).

Usually IC50 stands for the concentration needed to halve the response being measured.

Each structure is given as a SMILES string.

This assay concerns the target T1, IDO1 (Homo sapiens, UniProt P14902).
T1 construct: endogenous in cells; host or cells: HeLa cells (ATCC), IDO1 induced with 10 ng/mL IFNgamma
The assay is described as follows: IDO1 cell-based assay. The conditions noted are these: HeLa cells, 10 ng/mL IFNgamma, 24 hours with test compound; N-Formyl Kynurenine and L-tryptophan quantified by RFMS.

T1 sequence (P14902 whole entry): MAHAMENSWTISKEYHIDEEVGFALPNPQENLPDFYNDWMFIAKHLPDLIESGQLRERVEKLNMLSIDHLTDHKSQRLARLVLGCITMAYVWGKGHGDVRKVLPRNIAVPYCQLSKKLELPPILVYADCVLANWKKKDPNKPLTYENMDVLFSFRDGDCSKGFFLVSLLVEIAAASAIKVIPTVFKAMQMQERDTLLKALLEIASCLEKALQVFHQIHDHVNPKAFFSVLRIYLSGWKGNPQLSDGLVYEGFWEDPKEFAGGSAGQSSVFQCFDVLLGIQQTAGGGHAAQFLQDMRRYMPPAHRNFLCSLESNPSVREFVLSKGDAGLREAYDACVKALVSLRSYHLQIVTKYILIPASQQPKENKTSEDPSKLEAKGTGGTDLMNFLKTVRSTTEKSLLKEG

For `Cc1nc(NC(=O)C(C)[C@H]2[C@@H]3C[C@@H](n4cnc5cc(F)c(F)cc54)C[C@@H]32)ccc1C#N` (stereo partly drawn) [Example 46, (R)-N-(5-cyano-6-methyl-pyridin-2-yl)-2-((1R,3s,5S,6r)-3-(5,6-difluoro-1H-benzo[d]-imidazol-1-yl)bicyclo-[3.1.0]hexan-6-yl)-propanamide], the midpoint of inhibition, the IC50, lay at 41.3 nM. Consider `CC(C(=O)Nc1cnn(C(F)F)c1)[C@H]1[C@@H]2C[C@@H](n3cnc4cc(F)c(F)cc43)C[C@@H]21` (stereo partly drawn) [Example 47, 2-((1R,3s,5S,6r)-3-(5,6-difluoro-1H-benzo[d]-imidazol-1-yl)bicyclo-[3.1.0]hexan-6-yl)-N-(1-(difluoromethyl)-1H-pyrazol-4-yl)propanamide], for which the IC50 came out at 14 nM.

`CC(C(=O)Nc1cc(C2CC2)nn1C)[C@H]1[C@@H]2C[C@@H](n3cnc4cc(F)c(F)cc43)C[C@@H]21` (stereo partly drawn) [Example 48, N-(3-cyclopropyl-1-methyl-1H-pyrazol-5-yl)-2-((1R,3s,5S,6r)-3-(5,6-difluoro-1H-benzo[d]-imidazol-1-yl)bicyclo-[3.1.0]hexan-6-yl)-propanamide]: half-maximal inhibition (IC50) was put at 589 nM. Then `CC(C(=O)Nc1cnc2ccccn12)[C@H]1[C@@H]2C[C@@H](n3cnc4cc(F)c(F)cc43)C[C@@H]21` (stereo partly drawn) [Example 50, 2-((1R,3s,5S,6r)-3-(5,6-difluoro-1H-benzo[d]-imidazol-1-yl)bicyclo-[3.1.0]hexan-6-yl)-N-(imidazo[1,2-a]pyridin-3-yl)propanamide], with 495 nM; and `Cc1cc2ccc(NC(=O)C(C)[C@H]3[C@@H]4C[C@@H](n5cnc6cc(F)c(F)cc65)C[C@@H]43)cc2[nH]1` (stereo partly drawn) [Example 52, 2-((1R,3s,5S,6r)-3-(5,6-difluoro-1H-benzo[d]-imidazol-1-yl)bicyclo-[3.1.0]hexan-6-yl)-N-(2-methyl-1H-indol-6-yl)-propanamide], with 23.9 nM.

On to `Cc1cnc(NC(=O)C(C)[C@H]2[C@@H]3C[C@@H](n4cnc5cc(F)c(F)cc54)C[C@@H]32)cn1` (stereo partly drawn) [Example 53, 2-((1R,3s,5S,6r)-3-(5,6-difluoro-1H-benzo[d]-imidazol-1-yl)bicyclo-[3.1.0]hexan-6-yl)-N-(5-methylpyrazin-2-yl)-propanamide], for which inhibition was half-maximal at 10.5 nM (IC50). In turn, `CC(C(=O)Nc1cc(C(F)(F)F)nn1C)[C@H]1[C@@H]2C[C@@H](n3cnc4cc(F)c(F)cc43)C[C@@H]21` (stereo partly drawn) [Example 55, 2-((1R,3s,5S,6r)-3-(5,6-difluoro-1H-benzo[d]-imidazol-1-yl)bicyclo-[3.1.0]hexan-6-yl)-N-(1-methyl-3-(trifluoromethyl)-1H-pyrazol-5-yl)-propanamide] yielded an IC50 of 275 nM. Against the preceding compound, the IC50 is about 26-fold higher.

`CC(C(=O)Nc1ccc(C2CC2)nc1)[C@H]1[C@@H]2C[C@@H](n3cnc4cc(F)c(F)cc43)C[C@@H]21` (stereo partly drawn) [Example 56, N-(6-cyclopropylpyridin-3-yl)-2-((1R,3s,5S,6r)-3-(5,6-difluoro-1H-benzo[d]-imidazol-1-yl)bicyclo-[3.1.0]hexan-6-yl)-propanamide]: it took 5.7 nM to reach half-maximal inhibition (IC50). Compound `CC(C(=O)Nc1cnc(Br)cn1)[C@H]1[C@@H]2C[C@@H](n3cnc4cc(F)c(F)cc43)C[C@@H]21` (stereo partly drawn) [Example 57, N-(5-bromopyrazin-2-yl)-2-((1R,3s,5S,6r)-3-(5,6-difluoro-1H-benzo[d]-imidazol-1-yl)bicyclo-[3.1.0]hexan-6-yl)-propanamide] had an IC50 of 2.4 nM. Then `CC(C(=O)Nc1ccc(C(F)(F)F)cn1)[C@H]1[C@@H]2C[C@@H](Oc3ccnc4ccc(F)cc34)C[C@@H]21` (stereo partly drawn) [Example 59, 2-((1R,3s,5S,6r)-3-((6-fluoroquinolin-4-yl)oxy)-bicyclo[3.1.0]hexan-6-yl)-N-(5-(trifluoromethyl)-pyridin-2-yl)propanamide], with 3.7 nM; and `CC(C(=O)Nc1ccc(C(F)(F)F)nc1)[C@H]1[C@@H]2C[C@@H](Oc3ccnc4ccc(F)cc34)C[C@@H]21` (some centres unmarked) [Example 60], with 4.7 nM. Then `CC(C(=O)Nc1ccc(C2CC2)nc1)[C@H]1[C@@H]2C[C@@H](Oc3ccnc4ccc(F)cc34)C[C@@H]21` (stereo partly drawn) [Example 63, N-(6-cyclopropylpyridin-3-yl)-2-((1R,3s,5S,6r)-3-((6-fluoroquinolin-4-yl)oxy)-bicyclo[3.1.0]hexan-6-yl)propanamide], with 1.4 nM.

Compound `C[C@H](C(=O)Nc1ccc(-c2cnn(C)c2)cc1)[C@H]1[C@@H]2C[C@@H](n3cnc4cc(F)c(F)cc43)C[C@@H]21` [Example 65, (S)-2-((1R,3R,5S,6r)-3-(5,6-difluoro-1H-benzo[d]-imidazol-1-yl)-bicyclo[3.1.0]hexan-6-yl)-N-(4-(1-methyl-1H-pyrazol-4-yl)phenyl)-propanamide] showed an IC50 of 170 nM. `Cc1ncc(-c2ccc(NC(=O)[C@@H](C)[C@H]3[C@@H]4C[C@@H](n5cnc6cc(F)c(F)cc65)C[C@@H]43)cc2)cn1` [Example 66, (S)-2-((1R,3R,5S,6r)-3-(5,6-difluoro-1H-benzo[d]-imidazol-1-yl)bicyclo-[3.1.0]hexan-6-yl)-N-(4-(2-methylpyrimidin-5-yl)-phenyl)propanamide] yielded an IC50 of 1140 nM. Then `Cc1ccc(-c2ccc(NC(=O)[C@@H](C)[C@H]3[C@@H]4C[C@@H](n5cnc6cc(F)c(F)cc65)C[C@@H]43)cc2)cn1` [Example 67, (S)-2-((1R,3R,5S,6r)-3-(5,6-difluoro-1H-benzo[d]-imidazol-1-yl)-bicyclo[3.1.0]hexan-6-yl)-N-(4-(6-methylpyridin-3-yl)phenyl)propanamide], with 261 nM; and `C[C@H](C(=O)Nc1ccc(-c2cnn(CC(=O)O)c2)cc1)[C@H]1[C@@H]2C[C@@H](n3cnc4cc(F)c(F)cc43)C[C@@H]21` [Example 69, 2-(4-(4-((S)-2-((1R,3R,5S,6r)-3-(5,6-difluoro-1H-benzo[d]-imidazol-1-yl)bicyclo-[3.1.0]hexan-6-yl)-propanamido)phenyl)-1H-pyrazol-1-yl)acetic acid], with 5550 nM; and `Cc1nnc(-c2ccc(NC(=O)[C@@H](C)[C@H]3[C@@H]4C[C@@H](n5cnc6cc(F)c(F)cc65)C[C@@H]43)cc2)s1` [Example 70, (S)-2-((1R,3R,5S,6r)-3-(5,6-difluoro-1H-benzo[d]-imidazol-1-yl)bicyclo-[3.1.0]hexan-6-yl)-N-(4-(5-methyl-1,3,4-thiadiazol-2-yl)phenyl)propanamide], with 238 nM.

The compound `CC(C(=O)Nc1nnc(C(F)(F)F)[nH]1)[C@H]1[C@@H]2C[C@@H](Oc3ccnc4ccc(F)cc34)C[C@@H]21` (stereo partly drawn) [Example 74, 2-((1R,3s,5S,6r)-3-((6-fluoroquinolin-4-yl)oxy)-bicyclo[3.1.0]hexan-6-yl)-N-(5-(trifluoromethyl)-4H-1,2,4-triazol-3-yl)-propanamide] yielded a half-maximal inhibitory concentration (IC50) of 156 nM. This IC50 lies about 1.5-fold lower than the previous one. For `CC(C(=O)Nc1ccc(C#N)nn1)[C@H]1[C@@H]2C[C@@H](Oc3ccnc4ccc(F)cc34)C[C@@H]21` (stereo partly drawn) [Example 76, N-(6-cyanopyridazin-3-yl)-2-((1R,3s,5S,6r)-3-((6-fluoroquinolin-4-yl)oxy)-bicyclo[3.1.0]hexan-6-yl)-propanamide] the value was 4.6 nM. Regarding `CC(C(=O)Nc1nc[nH]n1)[C@H]1[C@@H]2C[C@@H](Oc3ccnc4ccc(F)cc34)C[C@@H]21` (stereo partly drawn) [Example 77, 2-((1R,3s,5S,6r)-3-((6-fluoroquinolin-4-yl)oxy)-bicyclo[3.1.0]hexan-6-yl)-N-(1H-1,2,4-triazol-3-yl)-propanamide], the IC50 was found to be 111 nM. This IC50 lies about 24-fold higher than the previous one. Then `C[C@H](C(=O)Nc1ccc(-c2ccc(C#N)nc2)cc1)[C@H]1[C@@H]2C[C@@H](n3cnc4cc(F)c(F)cc43)C[C@@H]21` [Example 79, (S)-N-(4-(6-cyanopyridin-3-yl)phenyl)-2-((1R,3R,5S,6r)-3-(5,6-difluoro-1H-benzo[d]-imidazol-1-yl)bicyclo-[3.1.0]hexan-6-yl)-propanamide], with 878 nM.

In turn, `Cc1nnc(-c2ccc(NC(=O)[C@@H](C)[C@H]3[C@@H]4C[C@@H](n5cnc6cc(F)c(F)cc65)C[C@@H]43)cc2)o1` [Example 81, (S)-2-((1R,3R,5S,6r)-3-(5,6-difluoro-1H-benzo[d]-imidazol-1-yl)-bicyclo[3.1.0]hexan-6-yl)-N-(4-(5-methyl-1,3,4-oxadiazol-2-yl)phenyl)-propanamide] showed an IC50 of 710 nM. Then `C[C@H](C(=O)Nc1ccc(-c2ccc(C#N)cn2)cc1)[C@H]1[C@@H]2C[C@@H](n3cnc4cc(F)c(F)cc43)C[C@@H]21` [Example 83, (S)-N-(4-(5-cyanopyridin-2-yl)phenyl)-2-((1R,3R,5S,6r)-3-(5,6-difluoro-1H-benzo[d]-imidazol-1-yl)bicyclo-[3.1.0]hexan-6-yl)-propanamide], with 845 nM; and `C[C@H](C(=O)Nc1ccc(-c2ccc(F)cn2)cc1)[C@H]1[C@@H]2C[C@@H](n3cnc4cc(F)c(F)cc43)C[C@@H]21` [Example 85, (S)-2-((1R,3R,5S,6r)-3-(5,6-difluoro-1H-benzo[d]-imidazol-1-yl)bicyclo-[3.1.0]hexan-6-yl)-N-(4-(5-fluoropyridin-2-yl)phenyl)-propanamide], with 1910 nM; and `C[C@H](C(=O)Nc1ccc(-c2ccc(C(F)(F)F)nc2)cc1)[C@H]1[C@@H]2C[C@@H](n3cnc4cc(F)c(F)cc43)C[C@@H]21` [Example 86, (S)-2-((1R,3R,5S,6r)-3-(5,6-difluoro-1H-benzo[d]-imidazol-1-yl)bicyclo-[3.1.0]hexan-6-yl)-N-(4-(6-(trifluoromethyl)pyridin-3-yl)phenyl)propanamide], with 568 nM. For `CC(C(=O)Nc1cc2ccccn2n1)[C@H]1[C@@H]2C[C@@H](Oc3ccnc4ccc(F)cc34)C[C@@H]21` (stereo partly drawn) [Example 87, 2-((1R,3s,5S,6r)-3-((6-fluoroquinolin-4-yl)oxy)-bicyclo[3.1.0]hexan-6-yl)-N-(pyrazolo[1,5-a]pyridin-2-yl)propanamide] the value was 3 nM.
